{"source": "paper PMC2187893", "about": "(The Journal of Experimental Medicine, 1990)", "format_in_all_cases": "cell-based", "key": {"[1]": {"system": "human peripheral blood T cells", "test": "Naloxone inhibition of T cell migration to stimuli", "details": "for Effect of naloxone on specific migration (percent response): naloxone-treated/nontreated x 100%; for Specific migration with naloxone / Specific migration without naloxone: spontaneous locomotion subtracted"}, "[2]": {"system": "human peripheral blood T lymphocytes", "test": "T cell migration assay in microchemotaxis chamber", "details": "peptides at 10 -5 M in lower wells, 1.5 h at 37C, Fig. 3; Dunnett's test"}, "[3]": {"system": "human peripheral blood T lymphocytes", "test": "Migration assay with or without concentration gradient"}, "[4]": {"details": "doses between 10-13 and 10^-9 M, migration only when a gradient existed"}, "[5]": {"details": "donor 5, stimulus at 10^-5 M, naloxone 10^-5 M"}, "[6]": {"details": "donor 4, stimulus at 10^-9 M, naloxone 10^-5 M"}}}
{"molecule": "C=CCN1CC[C@]23c4c5ccc(O)c4O[C@H]2C(=O)CC[C@@]3(O)[C@H]1C5", "note": "[naloxone, Naloxone]", "values": [{"measurement": "effect of naloxone on locomotion caused by IL-2", "setting": "[1]; naloxone 10^-5 M, cells pretreated 15 h at 37C, IL-2 100 U/ml, Table 1", "value": "no effect"}, {"measurement": "effect of naloxone on T cell migration in response to MET-ENK or LEU-ENK", "setting": "[1]; naloxone 10^-5 M, cells pretreated 15 h at 37C, Table 1", "value": "inhibited"}]}
{"molecule": "(D-Ala2, o- Leu']-enkephalin [DADLE]", "values": [{"measurement": "T cell migration response compared with spontaneous locomotion", "setting": "[2]", "value": "greater then spon- taneous locomotion"}]}
{"molecule": "/3-END: purified human beta-endorphin from Calbiochem-Behring Corp.; endogenous opioid neurohormone (YGGFMTSEKSQTPLVTLFKNAIIKNAYKKGE; Beta-endorphin; UniProt P01189 237-267, looked up)", "values": [{"measurement": "T cell migration without gradient (stimulus in upper and lower chambers)", "setting": "[3]; 10-9, 10^-7 and 10^-5 M, single donor, Fig. 2, p >0.05, NS", "value": "equivalent to the spontaneous locomotion"}, {"measurement": "type of locomotion stimulated", "setting": "[3]; beta-END, Fig. 2, 10^-9 to 10^-5 M", "value": "chemotactic"}]}
{"molecule": "H-Gly-Gly-Phe-Leu-OH [DesTyr-LEU-ENK]", "values": [{"measurement": "T cell migration response compared with spontaneous locomotion", "setting": "[2]", "value": "no effect on T cell migration"}]}
{"molecule": "Tyr-Gly-Gly-Phe-Leu [LEU-ENK, leucine-enkephalin]", "values": [{"measurement": "T cell migration response compared with spontaneous locomotion", "setting": "[2]", "value": "stimulatory"}, {"measurement": "type of locomotion stimulated", "setting": "[3]; [4]", "value": "chemotactic"}, {"measurement": "Effect of naloxone on specific migration (percent response)", "setting": "[1]; [5]", "value": 18.4, "unit": "%"}, {"measurement": "Specific migration with naloxone", "setting": "[1]; [5]", "value": 582}, {"measurement": "Specific migration without naloxone", "setting": "[1]; donor 5, stimulus at 10^-5 M", "value": "3,171"}]}
{"molecule": "Tyr-Gly-Gly-Phe-Met [MET-ENK, methionine-enkephalin]", "values": [{"measurement": "type of locomotion stimulated", "setting": "[3]; [4]", "value": "chemotactic"}, {"measurement": "Specific migration with naloxone", "setting": "[1]; donor 4, stimulus at 10- \" M, naloxone 10^-5 M", "value": 2}, {"measurement": "Specific migration without naloxone", "setting": "[1]; donor 4, stimulus at 10- \" M", "value": 830}, {"measurement": "Effect of naloxone on specific migration (percent response)", "setting": "[1]; [6]", "value": 12.8, "unit": "%"}, {"measurement": "Specific migration with naloxone", "setting": "[1]; [6]", "value": 335}, {"measurement": "Effect of naloxone on specific migration (percent response)", "setting": "[1]; [5]", "value": 24.8, "unit": "%"}, {"measurement": "Specific migration with naloxone", "setting": "[1]; [5]", "value": 768}, {"measurement": "Specific migration without naloxone", "setting": "[1]; donor 5, stimulus at 10^-5 M", "value": "3,093"}]}
{"molecule": "[D-Ser2Leu']- enkephalin Thb [DSLET]", "values": [{"measurement": "T cell migration response compared with spontaneous locomotion", "setting": "[2]", "value": "greater then spon- taneous locomotion"}]}
{"molecule": "[n-Ala-2,N-Me-Phe4Met(o)4-01]-enkephalin [FK 33-824]", "values": [{"measurement": "T cell migration response compared with spontaneous locomotion", "setting": "[2]", "value": "greater then spon- taneous locomotion"}]}
{"molecule": "[o-Ala2 ,MePhe4,Gly(ol)'j-enkephalin [DAGO]", "values": [{"measurement": "T cell migration response compared with spontaneous locomotion", "setting": "[2]", "value": "greater then spon- taneous locomotion"}]}
{"molecule": "cyclic [p-Pen2,n-Pen']-enkephalin [DPDPE]", "values": [{"measurement": "T cell migration response compared with spontaneous locomotion", "setting": "[2]", "value": "greater then spon- taneous locomotion"}]}
